# Reference: patent US20250195483A1, “SPIRO PIPERIDINE DERIVATIVES AS INHIBITORS OF APOL1 AND METHODS OF USING SAME” (Vertex Pharmaceuticals Incorporated, priority 2022, published 2025)
# Target: T1, APOL1 (Homo sapiens, UniProt O14791)
# T1 sequence (O14791 1-398): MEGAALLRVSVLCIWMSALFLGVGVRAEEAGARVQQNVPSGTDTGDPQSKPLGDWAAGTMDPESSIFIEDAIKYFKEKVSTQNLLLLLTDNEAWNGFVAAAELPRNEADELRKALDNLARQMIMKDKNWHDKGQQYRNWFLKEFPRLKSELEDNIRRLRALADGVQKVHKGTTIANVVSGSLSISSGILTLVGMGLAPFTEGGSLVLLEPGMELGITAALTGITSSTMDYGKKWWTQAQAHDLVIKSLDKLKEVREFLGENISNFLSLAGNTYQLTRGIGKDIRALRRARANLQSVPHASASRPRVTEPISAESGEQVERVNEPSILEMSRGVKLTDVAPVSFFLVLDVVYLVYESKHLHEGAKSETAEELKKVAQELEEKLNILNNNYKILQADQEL
# Assay: MultiTox-Fluor Multiplex Cytotoxicity Assay, tet-inducible APOL1 T-REx-HEK293 cells (G0, G1 or G2 clone not specified for Table 20)
# Assay type: cell-based
# Conditions: tet-induced, 24 hours with compound, ratio of dead to live cells, read-out: IP50 (i.e., IC50 for cell proliferation)
# Summary of the method: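 HEK293 T-REx cells with tet-inducible APOL1 G0, G1 or G2 clone, 23,400/well, treated with tetracycline plus compound (top 10 μM, 10-point 3-fold, duplicate) for 24 h at 37° C. MultiTox-Fluor dead/live fluorescence ratio, normalized to no-tet (100% viability) and 50 ng/mL tet (0% viability) controls, then curve-fitted.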
row,Structure (SMILES),IC50
1,"C[C@H]1CC2(CCN1Cc1cnn(-c3ccccc3)c1)OC(C(N)=O)c1ccc(Cl)cc12 (stereo partly drawn) [Compound 292, (2′S)-5-chloro-2′-methyl-1′-[(1-phenylpyrazol-4-yl)methyl]spiro[1H-isobenzofuran-3,4′-piperidine]-1-carboxamide]",≤ 0.05 µM
2,"CNC(=O)C1OC2(CCN(Cc3cnn(-c4cccc(C(F)(F)F)c4)c3)CC2)c2cc(Cl)ccc21 (stereo not shown) [Compound 295, 5-chloro-N-methyl-1′-[[1-[3-(trifluoromethyl)phenyl]pyrazol-4-yl]methyl]spiro[1H-isobenzofuran-3,4′-piperidine]-1-carboxamide]",≤ 0.05 µM
3,"COc1ccc2c(c1)C1(CCN(Cc3cnn(-c4ccccc4)c3)CC1)OC2C(N)=O (stereo not shown) [Compound 296, 6-methoxy-1′-((1-phenyl-1H-pyrazol-4-yl)methyl)-3H-spiro[isobenzofuran-1,4′-piperidine]-3-carboxamide]",≥ 0.5 µM
4,"CNC(=O)C1OC2(CCN(Cc3cnn(-c4ccccc4)c3)CC2)c2cc(OC)ccc21 (stereo not shown) [Compound 297, 6-methoxy-N-methyl-1′-((1-phenyl-1H-pyrazol-4-yl)methyl)-3H-spiro[isobenzofuran-1,4′-piperidine]-3-carboxamide]",≥ 0.5 µM
5,"CNC(=O)C1OC2(CCN(Cc3cnn(C(C)C)c3)CC2)c2cc(Cl)ccc21 (stereo not shown) [Compound 298, 6-chloro-1′-((1-isopropyl-1H-pyrazol-4-yl)methyl)-N-methyl-3H-spiro[isobenzofuran-1,4′-piperidine]-3-carboxamide]",≥ 0.5 µM
6,"CNC(=O)C1OC2(CCN(Cc3cnn(-c4ccccc4)c3C)CC2)c2cc(Cl)ccc21 (stereo not shown) [Compound 299, 6-chloro-N-methyl-1′-((5-methyl-1-phenyl-1H-pyrazol-4-yl)methyl)-3H-spiro[isobenzofuran-1,4′-piperidine]-3-carboxamide]",≥ 0.5 µM
7,"CS(=O)(=O)CCn1cc(CN2CCC3(CC2)CC(O)c2ccc(Cl)cc23)cn1 (stereo not shown) [Compound 302, 5-chloro-1′-[[1-(2-methylsulfonylethyl)pyrazol-4-yl]methyl]spiro[indane-3,4′-piperidine]-1-ol]",0.05 to 0.5 µM
8,"CC1(O)CC2(CCN(Cc3cnn(CCS(C)(=O)=O)c3)CC2)c2cc(Cl)ccc21 (stereo not shown) [Compound 303, 5-chloro-1-methyl-1′-[[1-(2-methylsulfonylethyl)pyrazol-4-yl]methyl]spiro[indane-3,4′-piperidine]-1-ol]",≥ 0.5 µM
9,"Cc1ccc2c(c1)C1(CCN(Cc3cnn(C)c3)CC1)SC2 [Compound 304, 5-methyl-1′-[(1-methylpyrazol-4-yl)methyl]spiro[1H-2-benzothiophene-3,4′-piperidine]]",≥ 0.5 µM
10,"CS(=O)(=O)CCn1cc(CN2CCC3(CC2)CNc2ccc(Cl)cc23)cn1 [Compound 305, 5-chloro-1′-[[1-(2-methylsulfonylethyl)pyrazol-4-yl]methyl]spiro[indoline-3,4′-piperidine]]",≥ 0.5 µM
11,"Cc1ccc2c(c1)C1(CCN(Cc3cnn(CCS(C)(=O)=O)c3)[C@@H](C)C1)CC2O (stereo partly drawn) [Compound 308, (2′S)-2′,5-dimethyl-1′-[[1-(2-methylsulfonylethyl)pyrazol-4-yl]methyl]spiro[indane-3,4′-piperidine]-1-ol]",≤ 0.05 µM
12,"Cc1cccc2c1C(O)CC21CCN(Cc2cnn(CCS(C)(=O)=O)c2)[C@@H](C)C1 (stereo partly drawn) [Compound 309, (2′S)-2′,4-dimethyl-1′-((1-(2-(methylsulfonyl)ethyl)-1H-pyrazol-4-yl)methyl)-2,3-dihydrospiro[indene-1,4′-piperidin]-3-ol]",0.05 to 0.5 µM
13,"Cn1cc(CN2CCC3(CCc4ccc(Cl)cc43)CC2)cn1 [Compound 310, 6-chloro-1′-[(1-methylpyrazol-4-yl)methyl]spiro[indane-1,4′-piperidine]]",≥ 0.5 µM
14,"Cn1cc(CN2CCC3(CC2)NCc2ccc(Cl)cc23)cn1 [Compound 311, 6-chloro-1′-[(1-methylpyrazol-4-yl)methyl]spiro[isoindoline-1,4′-piperidine]]",≥ 0.5 µM
15,"CS(=O)(=O)CCn1cc(CN2CCC3(CC2)CC(N2CCNC2=O)c2ccc(Cl)cc23)cn1 (stereo not shown) [Compound 312, 1-[5-chloro-1′-[[1-(2-methylsulfonylethyl)pyrazol-4-yl]methyl]spiro[indane-3,4′-piperidine]-1-yl]imidazolidin-2-one]",≥ 0.5 µM
16,"CC(=O)N1CC2(CCN(Cc3cnn(C)c3)CC2)c2cc(Cl)ccc21 [Compound 314, 1-[5-chloro-1′-[(1-methylpyrazol-4-yl)methyl]spiro[indoline-3,4′-piperidine]-1-yl]ethenone]",≥ 0.5 µM
